Test results reported in patent publication US20040224958A1, “Pyridopyrimidinone derivatives for treatment of neurodegenerative disease” (priority 2000, published 2004).
pIC50: −log10 of the molar value.

Experiments:
cdk4/D = cdk4/D (Homo sapiens, UniProt P11802); experiment: Cyclin-Dependent Kinase 4 (cdk4) Assay; type: biochemical; details: read-out: cdk4/D IC50
Cdk5/p25 = Cdk5/p25 (Homo sapiens, UniProt Q00535); experiment: Cyclin-Dependent Kinase 5 High Throughput Screening (cdk5-HTS) Assay; type: biochemical; details: high throughput screen
Summary of the method: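 IC50 determined from 33P incorporation into GST-RbCOOH captured on glutathione plates and read by scintillation counting. Reaction: 1.0 μg/mL Cdk5/p25, 20 μM [γ33P]ATP, pH 7.4 Tris buffer with MgCl2 and DTT, 30 min at room temperature, stopped with EDTA.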

cdc2/cyclinB = cdc2/cyclinB (Homo sapiens, UniProt P06493); experiment: Cyclin-Dependent Kinase Assay cdc2/cyclinB
Chain of cdc2/cyclinB (P06493 whole entry): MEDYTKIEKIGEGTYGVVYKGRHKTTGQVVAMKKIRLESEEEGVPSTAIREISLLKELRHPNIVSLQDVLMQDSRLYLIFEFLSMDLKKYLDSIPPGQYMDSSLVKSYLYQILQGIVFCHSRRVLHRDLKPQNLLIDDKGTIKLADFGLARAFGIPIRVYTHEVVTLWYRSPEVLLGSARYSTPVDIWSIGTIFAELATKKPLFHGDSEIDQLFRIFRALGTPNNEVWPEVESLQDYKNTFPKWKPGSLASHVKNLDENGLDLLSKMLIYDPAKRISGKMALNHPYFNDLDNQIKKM
Chain of cdc2/cyclinB (P14635 whole entry, further chain): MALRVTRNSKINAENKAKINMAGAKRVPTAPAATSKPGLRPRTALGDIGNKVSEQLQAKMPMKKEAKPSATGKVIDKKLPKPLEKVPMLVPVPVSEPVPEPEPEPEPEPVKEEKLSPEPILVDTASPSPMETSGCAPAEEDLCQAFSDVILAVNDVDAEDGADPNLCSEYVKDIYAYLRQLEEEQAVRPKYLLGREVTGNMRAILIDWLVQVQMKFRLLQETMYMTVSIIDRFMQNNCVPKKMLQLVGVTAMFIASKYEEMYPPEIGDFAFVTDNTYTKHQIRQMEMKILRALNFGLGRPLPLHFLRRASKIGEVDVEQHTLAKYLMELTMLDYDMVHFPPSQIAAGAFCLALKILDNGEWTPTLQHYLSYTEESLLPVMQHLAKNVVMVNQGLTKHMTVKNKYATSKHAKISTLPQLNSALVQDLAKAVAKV

cdk2/cyclinE = cdk2/cyclinE (Homo sapiens, UniProt P24941); experiment: Cyclin-Dependent Kinase Assay cdk2/cyclinE; details: cdk2/E IC50
cdk2/cyclinA = cdk2/cyclinA (Homo sapiens, UniProt P24941); experiment: Cyclin-Dependent Kinase Assay cdk2/cyclinA; details: cdk2/A IC50

Chain of cdk4/D (P11802 whole entry): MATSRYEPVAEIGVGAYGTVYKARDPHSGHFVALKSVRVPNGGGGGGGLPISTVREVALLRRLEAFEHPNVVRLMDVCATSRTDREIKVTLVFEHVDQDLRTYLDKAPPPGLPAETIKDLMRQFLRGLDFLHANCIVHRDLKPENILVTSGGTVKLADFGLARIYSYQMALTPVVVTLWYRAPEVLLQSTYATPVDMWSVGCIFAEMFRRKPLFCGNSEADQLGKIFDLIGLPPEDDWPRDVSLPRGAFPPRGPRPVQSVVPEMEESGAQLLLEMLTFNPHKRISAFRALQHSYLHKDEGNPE
Chain of cdk4/D (P24385 whole entry, further chain): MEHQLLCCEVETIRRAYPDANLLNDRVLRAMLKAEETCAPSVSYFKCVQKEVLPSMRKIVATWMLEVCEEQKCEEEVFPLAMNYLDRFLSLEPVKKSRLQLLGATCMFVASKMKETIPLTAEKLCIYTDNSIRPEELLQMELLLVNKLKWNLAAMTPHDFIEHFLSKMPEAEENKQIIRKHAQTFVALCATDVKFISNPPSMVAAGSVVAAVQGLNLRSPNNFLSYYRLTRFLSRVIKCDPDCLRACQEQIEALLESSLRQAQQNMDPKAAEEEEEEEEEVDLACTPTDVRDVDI

| pIC50 (cdk4/D) | pIC50 (Cdk5/p25) | pIC50 (cdc2/cyclinB) | pIC50 (cdk2/cyclinE) | pIC50 (cdk2/cyclinA) | Compound |
| --- | --- | --- | --- | --- | --- |
| 6.78 | 7.40 | 5.84 | 7.41 | 6.90 | CCCn1c(=O)ccc2cnc(Nc3ccc4[nH]nnc4c3)nc21 [Example 325, 2-(1H-Benzotriazol-5-ylamino)-8-propyl-8H-pyrido[2,3-d]pyrimidin-7-one] |
| 5.74 | 6.74 | 6.41 | 6.35 | 6.37 | CCCn1c(=O)ccc2cnc(Nc3cc(F)c(F)c(F)c3)nc21 [Example 359, 8-Propyl-2-(3,4,5-trifluoro-phenylamino)-8H-pyrido[2,3-d]pyrimidin-7-one] |
| 6.66 | 7.30 | 6.85 | 6.80 | 6.54 | CCC(CC)n1c(=O)ccc2cnc(Nc3ccc(Cl)c(Cl)c3)nc21 [Example 511, 2-(3,4-Dichloro-phenylamino)-8-(1-ethyl-propyl)-8H-pyrido[2,3-d]pyrimidin-7-one] |
| 6.32 | 6.96 | 6.56 | 6.65 | 6.20 | CCn1c(=O)ccc2cnc(Nc3ccc4[nH]ncc4c3)nc21 [Example 286, 8-Ethyl-2-(1H-indazol-5-ylamino)-8H-pyrido[2,3-d]pyrimidin-7-one] |
| 6.37 | 6.82 | 6.82 | 7.60 | 7.00 | CCCn1c(=O)ccc2cnc(Nc3ccc(F)c(C)c3)nc21 [Example 337, 2-(4-Fluoro-3-methyl-phenylamino)-8-propyl-8H-pyrido[2,3-d]pyrimidin-7-one] |
| 5.89 | 6.53 | 5.72 | 6.07 | 6.06 | CCCCn1c(=O)ccc2cnc(Nc3ccc(Cl)c(C(F)(F)F)c3)nc21 [Example 401, 8-Butyl-2-(4-chloro-3-trifluoromethyl-phenylamino)-8H-pyrido[2,3-d]pyrimidin-7-one] |
| 6.40 | 6.69 | 6.82 | 6.88 | 6.29 | CCCCn1c(=O)ccc2cnc(Nc3ccc(NC(=O)OC(C)(C)C)cc3)nc21 [Example 381, [4-(8-Butyl-7-oxo-7,8-dihydro-pyrido[2,3-d]pyrimidin-2-ylamino)-phenyl]-carbamic acid tert-butyl ester] |
| 5.87 | 6.21 | 5.84 | 6.04 | 5.70 | Cn1c(=O)ccc2cnc(Nc3ccc4[nH]ccc4c3)nc21 [Example 614, 2-(1H-Indol-5-ylamino)-8-methyl-8H-pyrido[2,3-d]pyrimidin-7-one] |
| 7.24 | 7.68 | 6.51 | 6.89 | 6.68 | CC(C)n1c(=O)ccc2cnc(Nc3ccc(F)c(F)c3)nc21 [Example 426, 2-(3,4-Difluoro-phenylamino)-8-isopropyl-8H-pyrido[2,3-d]pyrimidin-7-one] |
| 6.85 | 7.64 | 6.77 | 6.92 | 6.52 | CC(C)n1c(=O)ccc2cnc(Nc3ccc4c(c3)CCCC4=O)nc21 [Example 431, 8-Isopropyl-2-(5-oxo-5,6,7,8-tetrahydro-naphthalen-2-ylamino)-8H-pyrido[2,3-d]pyrimidin-7-one] |
| 6.82 | 7.48 | 7.33 | 6.85 | 6.51 | CCC(CC)n1c(=O)ccc2cnc(Nc3ccc(C)c(NS(C)(=O)=O)c3)nc21 [Example 519, N-{5-[8-(1-Ethyl-propyl)-7-oxo-7,8-dihydro-pyrido[2,3-d]pyrimidin-2-ylamino]-2-methyl-phenyl}-methanesulfonamide] |
| 7.44 | 7.36 | 6.96 | 7.03 | 6.40 | CCC(CC)n1c(=O)ccc2cnc(Nc3ccc(C#N)c(NC(C)=O)c3)nc21 [Example 506, N-{2-Cyano-5-[8-(-ethyl-propyl)-7-oxo-7,8-dihydro-pyrido[2,3-d]pyrimidin-2-ylamino]-phenyl}-acetamide] |
